One data set relates to dogs. The experiment in a line: Antitussive activity (50%-antitussive effective dose AtD50; efficiency ratio relative to codeine phosphate). The settings on record: for Antitussive Ratio: efficiency ratio relative to codeine phosphate; for ED50: Canis lupus familiaris, read-out: AtD50 (50%-antitussive effective dose). In kind it is in vivo. The procedure:
route of administration:
From the efficiency rate obtained upon each administration step, 50%-antitussive effective dose (AtD50) was calculated according to the Litchfield-Wilcoxon method. Further, efficiency ratio relative to codeine phosphate was also determined.

The nature of a further data set: in vivo. Type of data set: in vivo. Conditions: mouse, in vivo, sc, male ddy mice, subcutaneous injection, Litchfield-Wilcoxon.
Where [1] appears, read: intravenous injection, Litchfield-Wilcoxon method.

What is called LD50 is the dose at which mortality reaches 50%. The low end stands for a more toxic substance, the high end for a less toxic substance.

Structures are written as SMILES. Structures can show the parent of a compound that is named as a salt. Where two headings read alike, the source gives them in different places.
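For LD50 in this document: animals allocated into more than five groups, with five mice per group.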

Text for in vivo: test animals: more than five groups, each group
consisting of five male mice of ddy-

For `Cc1ccccc1NC(=NC1CCCCC1)c1ccccc1` [Compound 1, hydrochloric acid salt of N-cyclohexyl, N'-o-tolyl-benzamidine], the “Antitussive Ratio” value with dogs (intravenous injection) came to 1.73. For the same compound, the LD50 at 72 h in the data set “in vivo” came out at 242 mg/kg.

For `Cc1ccc(NC(=NC2CCCCC2)c2ccccc2)cc1` [Compound 2, hydrochloric acid salt of N-cyclohexyl, N'-p-tolyl-benzamidine], the “Antitussive Ratio” value in the data set with dogs (intravenous injection) was 0.58. The compound also had an LD50 at 72 h in the data set “in vivo” of 186 mg/kg.

On to `CCc1ccc(N=C(NC2CCCCC2)c2ccccc2)cc1.Cl` [Compound 3, N-cyclohexyl, N'-p-ethylphenyl-benzamidine hydrochloride], for which the “Antitussive Ratio” value in the data set with dogs (intravenous injection) amounted to 0.95. The LD50 at 72 h in “in vivo” is 218 mg/kg.

On to `Cc1cccc(NC(=NC2CCCCC2)c2ccccc2)c1C` [Compound 4, hydrochloric acid salt of N-cyclohexyl, N'-2,3-xylyl-benzamidine], for which, in the data set on dogs (intravenous injection), the “Antitussive Ratio” value amounted to 1.21. The LD50 at 72 h in “in vivo” is 117 mg/kg.

On to `COc1ccccc1N=C(NC1CCCCC1)c1ccccc1.Cl` [Compound 5, N-cyclohexyl, N'-o-methoxyphenyl-benzamidine hydrochloride], for which the “Antitussive Ratio” value in the data set on dogs (intravenous injection) turned out to be 0.44. In the data set “in vivo”, this compound registered an LD50 at 72 h of 268 mg/kg.

Turning to `COc1cccc(N=C(NC2CCCCC2)c2ccccc2)c1.Cl` [Compound 6, N-cyclohexyl, N'-m-methoxyphenyl-benzamidine hydrochloride], the “Antitussive Ratio” value with dogs (intravenous injection) was determined as 1.20. The same compound returned an LD50 at 72 h in “in vivo” of 78 mg/kg.

In the case of `c1ccc(C(=NC2CCCCC2)Nc2cccc3ccccc23)cc1` [Compound 7, N-cyclohexyl, N'-α-naphtyl-benzamidine hydrochloride], the “Antitussive Ratio” value in the data set on dogs (intravenous injection) was 0.79. The compound further gave a median lethal dose (LD50) at 72 h in the data set “in vivo” of over 800 mg/kg.

`Cc1cccc(C(=NC2CCCCC2)Nc2ccccc2)c1` [Compound 8, hydrochloric acid salt of N-cyclohexyl, N'-phenyl-m-toluamidine]: the “Antitussive Ratio” value in the data set with dogs (intravenous injection) is 1.20. Further, the LD50 at 72 h in “in vivo” is 276 mg/kg.

`Cc1cccc(NC(=NC2CCCCC2)c2cccc(C)c2)c1` [Compound 9, hydrochloric acid salt of N-cyclohexyl, N'-m-tolyl-m-toluamidine]: in the data set on dogs (intravenous injection), the “Antitussive Ratio” value was 1.20. This compound registered an LD50 at 72 h in the data set “in vivo” of 445 mg/kg.

On to `Cc1ccc(C(=NC2CCCCC2)Nc2ccccc2)cc1` [Compound 10, hydrochloric acid salt of N-cyclohexyl, N'-phenyl-p-toluamidine], for which the “Antitussive Ratio” value with dogs (intravenous injection) was found to be 0.83. In the data set “in vivo”, this compound came in with a 50% lethal dose (LD50) at 72 h of 186 mg/kg.

For the compound `COc1ccc2c(c1)[C@]13CCCC[C@@H]1[C@H](C2)N(C)CC3` [Compound 15, dextrometrofan hydrobromide, reference compound], the “Antitussive Ratio” value with dogs (intravenous injection) stood at 0.15. This compound registered an LD50 at 72 h in the data set “in vivo” of 153 mg/kg.

Turning to `COc1ccc2c(c1OC)C(=O)O[C@@H]2[C@H]1c2c(cc3c(c2OC)OCO3)CCN1C` [Compound 16, noscapine hydrochloride, reference compound], the “Antitussive Ratio” value in the data set with dogs (intravenous injection) came to 0.24. The compound further had an LD50 at 72 h in “in vivo” of 240 mg/kg.

On to `Cc1ccccc1C(=NC1CCCCC1)Nc1ccccc1` [Compound 18, N-cyclohexyl, N'-phenol-o-toluamidine hydrochloride], for which the ED50 with dogs (iv) is 5.15 mg/kg. The compound further came in with an LD50 at 72 h in “in vivo” of 740 mg/kg.

With `Cc1ccccc1N=C(NC1CCCCC1)c1ccccc1C.Cl` [Compound 19, N-cyclohexyl, N'-o-tolyl-o-toluamidine hydrochloride], the ED50 in the data set on dogs (setting [1]) was 5.15 mg/kg. In “in vivo”, this compound registered an LD50 at 72 h of 650 mg/kg.

`Cc1cccc(N=C(NC2CCCCC2)c2ccccc2C)c1.Cl` [Compound 20, N-cyclohexyl, N'-m-tolyl-o-toluamidine hydrochloride]: the ED50 with dogs (iv) was found to be 4.29 mg/kg. The compound also yielded an LD50 at 72 h in “in vivo” of over 100 mg/kg.

Turning to `Cc1ccc(N=C(NC2CCCCC2)c2ccccc2C)cc1.Cl` [Compound 21, N-cyclohexyl, N'-p-tolyl-o-toluamidine hydrochloride], in the data set with dogs (setting [1]), the ED50 came to 3.58 mg/kg. In “in vivo”, this compound displayed an LD50 at 72 h of 160 mg/kg.

Turning to `Cc1ccccc1C(=NC1CCCCC1)Nc1cccc(C)c1C` [Compound 22, N-cyclohexyl, N'-2,3,-xylyl-o-toluamidine hydrochloride], the ED50 in the data set with dogs (setting [1]) was determined as 3.58 mg/kg. For the same compound, in “in vivo”, the LD50 at 72 h is over 1000 mg/kg.

`COc1ccccc1N=C(NC1CCCCC1)c1cccc(C)c1.Cl` [Compound 23, N-cyclohexyl, N'-o-methoxyphenyl-m-toluamidine hydrochloride]: the ED50 with dogs (iv) turned out to be 4.29 mg/kg. In addition, in “in vivo”, the LD50 at 72 h turned out to be 100 mg/kg.

Consider `COc1cccc(N=C(NC2CCCCC2)c2ccccc2C)c1.O=C(O)C(=O)O` [Compound 24, N-cyclohexyl, N'-m-methoxyphenyl-o-toluamidine oxalate], for which the ED50 with dogs (setting [1]) amounted to 5.15 mg/kg. This compound gave an LD50 at 72 h in the data set “in vivo” of 891 mg/kg.

`Cc1ccc(N=C(NC2CCCCC2)c2cccc(C)c2)cc1.Cl` [Compound 25, N-cyclohexyl, N'-p-tolyl-m-toluamidine hydrochloride]: the ED50 in the data set with dogs (setting [1]) was determined as 4.29 mg/kg. Also, in “in vivo”, the LD50 at 72 h amounted to 900 mg/kg.

Take `Cc1cccc(C(=Nc2ccccc2C)NC2CCCCC2)c1.Cl` [Compound 26, N-cyclohexyl, N'-o-tolyl-m-toluamidine hydrochloride]: the ED50 with dogs (setting [1]) stood at 2.98 mg/kg. For the same compound, in “in vivo”, the LD50 at 72 h is 740 mg/kg.

`CCc1ccccc1N=C(NC1CCCCC1)c1cccc(C)c1.Cl` [Compound 27, N-cyclohexyl, N'-o-ethylphenyl-m-toluamidine hydrochloride]: the ED50 in the data set on dogs (setting [1]) was found to be 5.15 mg/kg. This compound gave an LD50 at 72 h in the data set “in vivo” of over 1000 mg/kg.

Regarding `COc1cccc(N=C(NC2CCCCC2)c2cccc(C)c2)c1.O=C(O)C(=O)O` [Compound 28, N-cyclohexyl, N'-m-methoxyphenyl-m-toluamidine oxalate], the ED50 in the data set on dogs (setting [1]) was 5.15 mg/kg. In addition, the LD50 at 72 h in the data set “in vivo” turned out to be 743 mg/kg.

For `Cc1ccc(C(=Nc2ccccc2C)NC2CCCCC2)cc1.Cl` [Compound 29, N-cyclohexyl, N'-o-tolyl-p-toluamidine hydrochloride], the ED50 in the data set with dogs (setting [1]) was found to be 2.48 mg/kg. Also, the median lethal dose (LD50) at 72 h in the data set “in vivo” came out at 620 mg/kg.

Take `CCc1ccccc1N=C(NC1CCCCC1)c1ccc(C)cc1.Cl` [Compound 30, N-cyclohexyl, N'-o-ethylphenyl-p-toluamidine hydrochloride]: the ED50 in the data set on dogs (setting [1]) is 4.29 mg/kg. This compound came in with an LD50 at 72 h in “in vivo” of over 1000 mg/kg.

For the compound `Cc1ccc(C(=NC2CCCCC2)Nc2cccc(C)c2C)cc1` [Compound 31, N-cyclohexyl, N'-2,3,-xylyl-p-toluamidine hydrochloride], in the data set with dogs (setting [1]), the ED50 came out at 2.07 mg/kg. The median lethal dose (LD50) at 72 h in “in vivo” is over 1000 mg/kg.

Consider `Cc1ccc(C(=Nc2cccc(C)c2)NC2CCCCC2)cc1.Cl` [Compound 32, N-cyclohexyl, N'-m-tolyl-p-toluamidine hydrochloride], for which the ED50 with dogs (setting [1]) turned out to be 2.48 mg/kg. In the data set “in vivo”, the LD50 at 72 h came to 460 mg/kg.

As for `COc1cccc(N=C(NC2CCCCC2)c2ccc(C)cc2)c1.Cl` [Compound 33, N-cyclohexyl, N'-m-methoxyphenyl-p-toluamidine hydrochloride], in the data set on dogs (setting [1]), the ED50 was 5.15 mg/kg. Moreover, in the data set “in vivo”, the LD50 at 72 h worked out at 600 mg/kg.

Regarding `COc1ccccc1C(=Nc1ccccc1)NC1CCCCC1.Cl` [Compound 34, N-cyclohexyl, N'-phenyl-o-methoxy-benzamidine hydrochloride], in the data set with dogs (setting [1]), the ED50 came out at 3.58 mg/kg. This compound also yielded an LD50 at 72 h in “in vivo” of 100 mg/kg.

On to `COc1ccccc1C(=Nc1cccc(C)c1)NC1CCCCC1.Cl` [Compound 35, N-cyclohexyl, N'-m-tolyl-o-methoxy-benzamidine hydrochloride], for which the ED50 in the data set on dogs (setting [1]) stood at 5.15 mg/kg. Also, the LD50 at 72 h in the data set “in vivo” was determined as 144 mg/kg.

With `COc1ccccc1C(=Nc1ccccc1C)NC1CCCCC1.Cl` [Compound 36, N-cyclohexyl, N'-o-tolyl-o-methoxy-benzamidine hydrochloride], the ED50 in the data set on dogs (setting [1]) was 4.29 mg/kg. Also, the LD50 at 72 h in “in vivo” stood at 100 mg/kg.

As for `COc1cccc(N=C(NC2CCCCC2)c2ccccc2OC)c1.Cl` [Compound 37, N-cyclohexyl, N'-m-methoxyphenyl-o-methoxybenzamidine hydrochloride], the ED50 in the data set on dogs (setting [1]) worked out at 2.98 mg/kg. In the data set “in vivo”, the LD50 at 72 h is 207 mg/kg.

In the case of `COc1ccc(C(=Nc2ccccc2)NC2CCCCC2)cc1.Cl` [Compound 38, N-cyclohexyl, N'-phenyl-p-anisamidine hydrochloride], the ED50 in the data set with dogs (setting [1]) amounted to 2.98 mg/kg. Also, in the data set “in vivo”, the LD50 at 72 h was determined as 120 mg/kg.

In the case of `COc1ccc(C(=Nc2ccccc2C)NC2CCCCC2)cc1.Cl` [Compound 39, N-cyclohexyl, N'-o-tolyl-p-anisamidine hydrochloride], in the data set on dogs (setting [1]), the ED50 is 3.58 mg/kg. For the same compound, the LD50 at 72 h in “in vivo” was 172 mg/kg.

Consider `COc1ccc(C(=Nc2cccc(C)c2)NC2CCCCC2)cc1.Cl` [Compound 40, N-cyclohexyl, N'-m-tolyl-p-anisamidine hydrochloride], for which, in the data set on dogs (setting [1]), the ED50 came to 2.48 mg/kg. In “in vivo”, this compound gave an LD50 at 72 h of 298 mg/kg.

With `COc1ccc(C(=Nc2cccc(OC)c2)NC2CCCCC2)cc1.Cl` [Compound 41, N-cyclohexyl, N'-m-methoxyphenyl-p-anisamidine hydrochloride], the ED50 in the data set with dogs (setting [1]) turned out to be 2.98 mg/kg. This compound also displayed a median lethal dose (LD50) at 72 h in “in vivo” of 248 mg/kg.

Consider `CCc1ccccc1N=C(NC1CCCCC1)c1ccccc1.Cl` [Compound 42, N-cyclohexyl, N'-o-ethylphenyl-benzamidine hydrochloride], for which the ED50 with dogs (setting [1]) turned out to be 4.29 mg/kg. In the data set “in vivo”, this compound returned an LD50 at 72 h of over 1000 mg/kg.

`Cc1cc(C)cc(N=C(NC2CCCCC2)c2ccccc2)c1.Cl` [Compound 43, N-cyclohexyl, N'-3,5-xylyl-benzamidine hydrochloride]: the ED50 in the data set on dogs (setting [1]) was determined as 3.58 mg/kg. Moreover, in “in vivo”, the LD50 at 72 h is 660 mg/kg.

For the compound `CCc1cccc(N=C(NC2CCCCC2)c2ccccc2)c1.Cl` [Compound 44, N-cyclohexyl, N'-m-ethylphenyl-benzamidine hydrochloride], the ED50 in the data set on dogs (setting [1]) was 4.29 mg/kg. The compound further had an LD50 at 72 h in “in vivo” of 900 mg/kg.

On to `Cc1cccc(C)c1N=C(NC1CCCCC1)c1ccccc1.Cl` [Compound 45, N-cyclohexyl, N'-2,6-xylyl-benzamidine hydrochloride], for which the ED50 in the data set with dogs (setting [1]) worked out at 4.29 mg/kg. Moreover, the LD50 at 72 h in “in vivo” was 248 mg/kg.

For the origin of these results see patent US3988364A, “Novel N,N-di-substituted amidines and several acid-addition salts thereof” (Toyo Jozo Kabushiki Kaisha, priority 1972, dated 1976).
